In one assay the target is T1, Human GLP-1R (Homo sapiens, UniProt P43220).
T1 construct: expressed in transfected cells; host or cells: HEK293 cells
In words: cAMP accumulation assay, GLP-1R. The class given is cell-based. Here is the method:
These cells were then resuspended in 5 mL of the assay buffer, and their concentration was determined using a Vi-Cell Counter. […] Samples were subsequently added to the assay plate along with ECHO555. […] A volume of 10 µL of the cell suspension was added to the assay plate, with a density of 1000 cells/well for GLP-1R testing and 2000 cells/well for GIPR testing. The assay plate was then incubated in a 23°C incubator for 30 minutes. A starting concentration of 800 nM was used to prepare the cAMP standard curve, followed by a 4-fold 10-point serial dilution. These serially diluted cAMP standards were added to the assay plate at a volume of 10 µL/well. Subsequently, 10 µL of the cAMP detection solution was added to the assay plate, and the plate was incubated at room temperature for 1 hour, shielded from direct light. […] For data analysis, each data point’s cAMP level (nM) was calculated using the established cAMP standard curve. The percentage activity for each data point was determined using the formula: % Activity = (cAMP level of testing sample - average cAMP level of low control) / ([…] cAMP level of high control - average cAMP level of […] control) × 100%. Additionally, the ‘log(agonist) vs. response – variable slope’ model in GraphPad Prism 5.0 was used to fit the dose-response curve of each sample and calculate the EC50 value.
(Changes in cAMP serve as a functional read-out for many G protein-coupled receptors.)

For a further assay, the system named is db/db mice. In words: Blood glucose reducing effect in db/db mice model. The class given is in vivo. The following applies: for Insulin in serum: 31 days, ELISA, three days after last dose, Mean±SD, n=11. Here is the method: In contrast, the db/db-ND group received only the drug vehicle via subcutaneous injection. Three parallel experimental groups were established to explore the dose-dependent characteristics of BGM0504 in db/db mice: a low-dose group (0.05 mg/kg), a standard dose group (0.15 mg/kg), and a high-dose group (0.5 mg/kg), each comprising 11 db/db mice. Subsequent administrations were conducted every 3 days following the initial administration, and the experiment spanned 31 days. […] To thoroughly investigate the dose dependence of BGM0504 in db/db mice, we established additional dose groups, including a low-dose group at 0.05 mg/kg and a high-dose group at 0.5 mg/kg. Each experimental group comprised 11 db/db mice. Following the initial administration, subsequent doses were administered every 3 days, spanning a total of 31 days. Throughout this study, we meticulously observed and analyzed a spectrum of parameters encompassing changes in body weight, food intake, non-fasting blood glucose post-initial administration. In this experimental endeavor, we engaged 55 male db/db mice of SPF grade, procured at 6–8 weeks, from Zhejiang Vital River Laboratory Animal Technology Co., Ltd. The animals were divided into groups based on body weight and fasting blood glucose levels. […] The groups included the db/db-ND group, the Tirzepatide-0.15 mg/kg group, the BGM0504-0.05 mg/kg group, the BGM0504-0.15 mg/kg group, and the BGM0504-0.5 mg/kg group, each comprising 11 mice. […] Non-fasting blood glucose levels were measured at 0, 1, 2, 3, 6, 24, 48, and 72 hours post-administration. Three days after the last dose, the mice were weighed. Subsequently, a portion of non-anticoagulated whole blood was collected from the orbital venous plexus under anesthesia. Blood samples were left at room temperature for 30 minutes, then centrifuged at 5000 rpm for 5 minutes. The serum was separated and frozen at -80°C for serum insulin content testing. Serum insulin levels were measured using the enzyme-linked immunosorbent assay (ELISA) method.
On the technique in general: In an ELISA, binding on a coated surface is turned into a signal by an enzyme label.

In assay [1] the target is T2, Human Serum Albumin (HSA) protein (Homo sapiens, UniProt P02768).
T2 construct: purified Human ALB (25–609)-His was immobilized
The assay is described as follows: biochemical. The format is binding. The text has this: The buffer used was PBST (PBS with 0.02% Tween 20).

SMILES strings stand for the structures. Marks after values point to notes of the source that are not given here.

A word on the EC50: it is the midpoint of the concentration-response curve. A lower EC50 goes with greater potency. What is called Emax is the greatest response seen or fitted, relative to the assay's reference. The Kd is the constant that tells how readily two partners part at equilibrium. A low value points to tighter binding.

T1 sequence (P43220 24-463): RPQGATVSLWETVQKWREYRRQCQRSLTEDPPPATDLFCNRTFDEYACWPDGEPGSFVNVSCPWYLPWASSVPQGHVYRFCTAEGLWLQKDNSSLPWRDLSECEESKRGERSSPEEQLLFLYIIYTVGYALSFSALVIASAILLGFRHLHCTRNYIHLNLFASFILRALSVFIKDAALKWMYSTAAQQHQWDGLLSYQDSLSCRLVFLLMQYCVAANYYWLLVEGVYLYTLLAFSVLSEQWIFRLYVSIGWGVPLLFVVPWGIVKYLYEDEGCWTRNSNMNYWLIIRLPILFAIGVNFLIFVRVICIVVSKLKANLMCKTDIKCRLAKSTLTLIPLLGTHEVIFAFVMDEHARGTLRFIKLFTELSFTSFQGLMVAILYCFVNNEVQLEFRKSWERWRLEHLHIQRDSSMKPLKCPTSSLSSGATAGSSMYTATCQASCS
T2 sequence (P02768 25-609): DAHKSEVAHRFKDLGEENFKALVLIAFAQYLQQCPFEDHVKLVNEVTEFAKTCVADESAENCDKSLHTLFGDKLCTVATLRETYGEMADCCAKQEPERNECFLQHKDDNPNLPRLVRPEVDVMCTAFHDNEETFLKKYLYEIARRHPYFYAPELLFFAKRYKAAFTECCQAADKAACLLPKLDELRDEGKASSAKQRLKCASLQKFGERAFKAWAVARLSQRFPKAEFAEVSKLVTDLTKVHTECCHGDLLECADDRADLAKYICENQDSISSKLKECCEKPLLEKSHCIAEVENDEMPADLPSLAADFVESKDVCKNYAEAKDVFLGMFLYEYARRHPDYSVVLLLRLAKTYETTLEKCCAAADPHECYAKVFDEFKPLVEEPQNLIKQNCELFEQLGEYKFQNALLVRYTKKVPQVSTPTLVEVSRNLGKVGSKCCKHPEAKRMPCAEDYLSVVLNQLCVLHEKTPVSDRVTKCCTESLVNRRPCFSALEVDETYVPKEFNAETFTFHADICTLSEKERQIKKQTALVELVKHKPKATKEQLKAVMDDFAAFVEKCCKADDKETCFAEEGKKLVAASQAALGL

In the case of `CC[C@H](C)[C@H](NC(=O)[C@H](CC(C)C)NC(=O)[C@H](Cc1c[nH]c2ccccc12)NC(=O)[C@H](CCC(N)=O)NC(=O)[C@@H](NC(=O)[C@H](Cc1ccccc1)NC(=O)[C@H](C)NC(=O)[C@H](CCCCN)NC(=O)[C@H](CCC(N)=O)NC(=O)[C@H](C)NC(=O)[C@@H](NC(=O)[C@H](CCCCN)NC(=O)[C@H](CC(=O)O)NC(=O)[C@H](CC(C)C)NC(=O)C(C)(C)NC(=O)[C@@H](NC(=O)[C@H](CO)NC(=O)[C@H](Cc1ccc(O)cc1)NC(=O)[C@H](CC(=O)O)NC(=O)[C@H](CO)NC(=O)[C@@H](NC(=O)[C@H](Cc1ccccc1)NC(=O)[C@@H](NC(=O)CNC(=O)[C@H](CCC(=O)O)NC(=O)C(C)(C)NC(=O)[C@@H](N)Cc1ccc(O)cc1)[C@@H](C)O)[C@@H](C)O)[C@@H](C)CC)[C@@H](C)CC)C(C)C)C(=O)N[C@@H](C)C(=O)NCC(=O)NCC(=O)N1CCC[C@H]1C(=O)N[C@@H](CO)C(=O)N[C@@H](CO)C(=O)NCC(=O)N[C@@H](C)C(=O)N1CCC[C@H]1C(=O)N1CCC[C@H]1C(=O)N1CCC[C@H]1C(=O)N[C@@H](CO)C(=O)N[C@@H](CCCCNC(=O)COCCOCCOCCNC(=O)COCCOCCOCCNC(=O)CC[C@H](NC(=O)CCCCCCCCCCCCCCCCCCC(=O)O)C(=O)O)C(N)=O` [BGM0504], the EC50 at Human GLP-1R (HEK293 cells with high expression of GLP-1 receptor, 1000 cells/well, 30 min 23°C, geometric mean ± SEM, n = 3) is 0.031 nM. In addition, the Emax at Human GLP-1R (HEK293 cells, relative to 10 nM GLP-1(7–37) high control, arithmetic mean ± SEM) amounted to 92.7 ± 7.6%. For the same compound, the Insulin in serum in the assay on db/db mice (0.05 mg/kg s.c. every 3 days) is reported as 37649.0±3597.0^a nIU/mL; with db/db mice (0.15 mg/kg s.c. every 3 days), 30897.0±5634.0^a nIU/mL; in the assay with db/db mice (0.5 mg/kg s.c. every 3 days) it was 32774.0±6290.0^a nIU/mL. The “body weight and food intake” value in the assay on db/db mice (early stages of administration) is “acute decline in body weight and food intake”. In the assay with db/db mice (s.c., Tirzepatide 0.15 mg/kg, BGM0504 0.05, 0.15, 0.5 mg/kg, n = 11), the “non-fasting blood glucose within 72 h after first administration, vs db/db-ND group” value is reported as “significant blood glucose suppression”. This compound also displayed a Kd in assay [1] of 73 nM.
